Source: patent US20240034743A9, “TRICYCLIC COMPOUNDS AS EGFR INHIBITORS” (QILU PHARMACEUTICAL CO., LTD., priority 2020, published 2024)
Like-named read-outs stand apart in the source and are kept apart here.

Columns and labels:
[1] = system: Ba/F3_Del19/T790M/C797S cells; assay: Ba/F3_Del19/T790M/C797S cell proliferation inhibition assay (CellTiter-Glo); format: cell-based; details: Mus musculus
Procedure: Ba/F3_Del19/T790M/C797S Cell Proliferation Inhibition Assay
In the assay, the inhibition effect of the compounds on the proliferation of Ba/F3_Del19/T790M/C797S cells was tested by adopting a CellTiter-Glo method, and the concentration IC50 of the compound for inhibiting half maximal growth of cells was obtained.
Ba/F3_Del19/T790M/C797S, purchased from Kyinno Biotechnology Co., Ltd. 1640 medium, fetal bovine serum (FBS), Penicillin-Streptomyces, and GlutaMAX-I Supplement, purchased from GIBCO.
(§1) Brigatinib, purchased from Selleck.
(§2) CellTiter-Glo reagent, purchased from Promega.
1) Ba/F3_Del19/T790M/C797S cells were seeded in a 384-well plate at a density of 700 cells/well with 30 μL/well.
(§3) 2) Day 0: […] of gradiently-diluted compounds to be tested with a final concentration of DMSO of 0.1% was added to plate using Echo, and the plate was incubated in a cell incubator for 72 h (37° C., 5% CO2). […] of DMSO was added into each well in blank control group.
(§4) 3) Day 3: 30 μL Cell Titer-Glo reagent was added to each well, and the plate was in the dark under room temperature for 30 min.
(§5) 4) The chemiluminescent signal was detected by an Envision plate reader (PerkinElmer).
Data analysis was performed using GraphPad Prism 6 software to give the IC50 for compounds.

[2] = molecular target: EGFR WT (wild type EGFR) (Homo sapiens (Human), UniProt P00533); assay: In vitro enzymatic TR-FRET (HTRF KinEASE-TK) kinase assay, EGFR WT; format: biochemical; details: kinase activity, TR-FRET; read-out: EGFR (WT) IC50
Procedure: (I) In Vitro Enzymatic Experiment for EGFR WT and EGFR L858R/T790M/C797S
In the assay, the inhibition effect of the compound on the kinase activity of EGFR WT (wild type EGFR) and EGFR L858R/T790M/C797S was tested by adopting a time-resolved fluorescence resonance energy transfer (TR-FRET) method, and half maximal inhibitory concentration IC50 of the compound on the kinase activity of EGFR was obtained.
EGFR recombinase and EGFR L858R/T790M/C797S recombinase, purchased from Signalchem.
HTRF KinEASE-TK kit, purchased from Cisbio.
DTT, MnCl2, and MgCl2, purchased from Sigma.
ATP, purchased from Promega.
as §1
1) 1× working solution was prepared: 5 mM MgCl2; 1 mM DTT; 1 mM MnCl2 and 1× kinase buffer (in kit).
2) […] of gradiently-diluted compound was transferred to a 384-well plate using Echo 550 (Labcyte).
3) 5 μL of 2× EGFR WT or EGFR L858R/T790M/C797S recombinase solution was added to the 384-well plate, and the plate was incubated at room temperature for 10 min.
4) 5 μL of 2× TK-substrate-biotin substrate solution (containing ATP) was added to the 384-well plate, and the plate was incubated at room temperature for 40 min.
5) 5 μL of assay solution containing Sa-XL 665 HTRF and 5 μL of TK-antibody-Cryptatewas were added to the plate, and the plate was incubated at room temperature for 1 h.
6) The fluorescence signal values at 615 nm and 665 nm were measured for each well using an Envision microplate reader (PerkinElmer).
7) The ratio of fluorescence signal values at 665 nm and 615 nm was calculated for each well.
8) Data analysis was performed using GraphPad Prism software to give the IC50 for compounds.

[3] = system: Ba/F3_L858R/T790M/C797S cells; assay: Ba/F3_L858R/T790M/C797S cell proliferation inhibition assay (CellTiter-Glo); format: cell-based; details: Mus musculus
Procedure: Ba/F3_L858R/T790M/C797S Cell Proliferation Inhibition Assay
In the assay, the inhibition effect of the compounds on the proliferation of Ba/F3_L858R/T790M/C797S cells was tested by adopting a CellTiter-Glo method, and the concentration IC50 of the compound for inhibiting half maximal growth of cells was obtained.
Ba/F3_L858R/T790M/C797S cells were constructed by Pharmaron Beijing Co., Ltd.
1640 medium, fetal bovine serum (FBS), Penicillin-Streptomyces, and GlutaMAX-I Supplement, purchased from GIBCO.
as §1, §2
1) Ba/F3_L858R/T790M/C797S cells were seeded in a 384-well plate at a density of 700 cells/well with 30 μL/well.
as §3, §4, §5
(§6) 5) Data analysis was performed using GraphPad Prism software to give the IC50 for compounds.

[4] = system: A431 cells (EGFR WT); assay: A431 cell proliferation inhibition assay (CellTiter-Glo); format: cell-based; details: Homo sapiens
Procedure: A431 Cell Proliferation Inhibition Assay
In the assay, the inhibition effect of the compounds on the proliferation of A431 cells was tested by adopting a CellTiter-Glo method, and the concentration IC50 of the compound for inhibiting half maximal growth of cells was obtained.
A431 cells, purchased from ATCC.
DMEM medium, fetal bovine serum (FBS), and Penicillin-Streptomycin, purchased from GIBCO.
as §1, §2
1) A431 cells were seeded in a 384-well plate at a density of 800 cells/well with 30 μL/well, and the plate was cultured in a cell incubator for 24 h (37° C., 5% CO2).
as §3, §4, §5, §6

[5] = BaF3, cell proliferation, 72 h, CellTiter-Glo, read-out: Ba/F3 (Del19/T790M/C797S) IC50
[6] = BaF3, cell proliferation, 72 h, CellTiter-Glo, read-out: Ba/F3 (L858R/T790M/C797S) IC50
[7] = A-431, cell proliferation, 72 h, CellTiter-Glo, read-out: A431 EGFR WT IC50
[8] = BaF3, 72 h, read-out: Ba/F3 (Del19/T790M/C797S) IC50(nM)
[9] = BaF3, 72 h, read-out: Ba/F3 (L858R/T790M/C797S) IC50(nM)
[10] = A-431, 72 h, read-out: A431 EGFR WT IC50(nM)

EGFR WT (wild type EGFR), sequence (P00533 25-1210): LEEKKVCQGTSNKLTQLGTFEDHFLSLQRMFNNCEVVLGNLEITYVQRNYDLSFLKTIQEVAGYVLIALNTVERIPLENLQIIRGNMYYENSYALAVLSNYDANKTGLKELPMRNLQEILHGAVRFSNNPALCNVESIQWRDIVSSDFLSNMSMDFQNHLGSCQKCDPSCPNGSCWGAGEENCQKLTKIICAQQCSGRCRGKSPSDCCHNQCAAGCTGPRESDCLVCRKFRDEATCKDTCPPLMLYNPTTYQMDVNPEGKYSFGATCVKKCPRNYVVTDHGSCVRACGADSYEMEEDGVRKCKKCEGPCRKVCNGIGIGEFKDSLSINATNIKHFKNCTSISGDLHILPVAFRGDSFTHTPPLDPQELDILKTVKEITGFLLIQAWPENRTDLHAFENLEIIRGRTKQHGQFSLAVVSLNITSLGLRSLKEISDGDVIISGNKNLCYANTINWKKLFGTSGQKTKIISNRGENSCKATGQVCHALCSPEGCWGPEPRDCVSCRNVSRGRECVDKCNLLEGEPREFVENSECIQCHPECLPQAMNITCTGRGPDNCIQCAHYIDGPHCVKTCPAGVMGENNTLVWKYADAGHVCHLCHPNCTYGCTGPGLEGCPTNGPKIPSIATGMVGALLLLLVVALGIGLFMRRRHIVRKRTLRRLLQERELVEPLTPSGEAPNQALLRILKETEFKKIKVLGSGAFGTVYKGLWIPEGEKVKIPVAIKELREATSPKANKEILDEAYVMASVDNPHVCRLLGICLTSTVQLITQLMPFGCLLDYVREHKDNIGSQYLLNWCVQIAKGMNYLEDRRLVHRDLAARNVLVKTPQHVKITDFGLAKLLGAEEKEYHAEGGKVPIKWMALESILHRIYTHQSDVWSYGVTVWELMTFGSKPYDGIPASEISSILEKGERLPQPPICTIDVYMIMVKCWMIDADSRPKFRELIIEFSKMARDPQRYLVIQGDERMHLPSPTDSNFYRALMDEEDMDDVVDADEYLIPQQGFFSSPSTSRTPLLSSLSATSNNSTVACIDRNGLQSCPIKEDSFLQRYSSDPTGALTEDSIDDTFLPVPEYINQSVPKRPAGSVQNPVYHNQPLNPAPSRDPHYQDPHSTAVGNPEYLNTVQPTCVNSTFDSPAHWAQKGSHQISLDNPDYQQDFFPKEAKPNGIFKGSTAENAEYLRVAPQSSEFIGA

IC50 [1, 5] [nM]	IC50 [2] [nM]	IC50 [3, 6] [nM]	IC50 [4, 7] [nM]	Structure (SMILES)	IC50 [1, 8] [nM]	IC50 [3, 9] [nM]	IC50 [4, 10] [nM]
< 10	1 to 10	10 to 50	100 to 1000	COc1cc2c(cc1Nc1ncc(Br)c(Nc3ccc4nccnc4c3P(C)(C)=O)n1)-c1cnn(C)c1CC(O)C2 (centres unmarked) [Compound 31]	–	–	–
< 10	1 to 10	< 10	100 to 1000	COc1nc2c(cc1Nc1ncc(Br)c(Nc3ccc4nccnc4c3NS(C)(=O)=O)n1)-c1cnn(C)c1CCN2 [Compound 81]	–	–	–
10 to 50	1 to 10	10 to 50	100 to 1000	COc1cc2c(cc1Nc1ncc(Br)c(Nc3ccc4nccnc4c3P(C)(C)=O)n1)-c1cnn(C3COC3)c1CCN2C(C)C [Compound 98]	–	–	–
< 10	1 to 10	< 10	50 to 100	COc1cc2c(cc1Nc1ncc(Br)c(Nc3ccc4nccnc4c3P(C)(C)=O)n1)-c1cn(C)nc1CCN2C [Compound 8]	–	–	–
< 10	1 to 10	< 10	100 to 1000	COc1cc2c(cc1Nc1ncc(Br)c(Nc3ccc4nccnc4c3P(C)(C)=O)n1)-c1cnn(C)c1CCC2O (centres unmarked) [Compound 24]	–	–	–
< 10	1 to 10	10 to 50	100 to 1000	COc1cc2c(cc1Nc1ncc(Br)c(Nc3ccnc(C)c3P(C)(C)=O)n1)-c1cnn(C)c1CCN2C(C)C [Compound 111]	–	–	–
10 to 50	10 to 50	10 to 50	100 to 1000	COc1cc2c(cc1Nc1ncc(Br)c(Nc3ccccc3P(C)(C)=O)n1)-c1cnn(C)c1COC2 [Compound 46]	–	–	–
< 10	1 to 10	< 10	100 to 1000	COc1cc2c(cc1Nc1ncc(Br)c(Nc3ccc4nccnc4c3P(C)(C)=O)n1)-c1cnn(C)c1CN(C)C2 [Compound 11]	–	–	–

The next lines start with the compound.

Structure (SMILES)	IC50 [1, 5] [nM]	IC50 [2] [nM]	IC50 [3, 6] [nM]	IC50 [4, 7] [nM]	IC50 [1, 8] [nM]	IC50 [3, 9] [nM]	IC50 [4, 10] [nM]
COc1cc2c(cc1Nc1ncc(Br)c(Nc3ccnc(C)c3NS(C)(=O)=O)n1)-c1cnn(C)c1CCN2C [Compound 136]	100 to 1000	1 to 10	100 to 1000	> 1000	–	–	–
COc1cc2c(cc1Nc1ncc(Br)c(Nc3ccccc3P(C)(C)=O)n1)-c1cnnn1CCN2C [Compound 48]	< 10	10 to 50	10 to 50	100 to 1000	–	–	–
COc1cc2c(cc1Nc1ncc(C)c(Nc3ccccc3P(C)(C)=O)n1)-c1cnn(C)c1CCN2C(C)C [Compound 94]	10 to 50	1 to 10	10 to 50	100 to 1000	–	–	–
COc1cc2c(cc1Nc1ncc(Br)c(Nc3ccc(F)cc3NS(C)(=O)=O)n1)-c1cnn(C)c1CCN2C(C)C [Compound 128]	< 10	1 to 10	< 10	> 1000	–	–	–
COc1cc2c(cc1Nc1ncc(Br)c(Nc3ccccc3P(C)(C)=O)n1)-c1cn(CCN(C)C)nc1CCN2C(C)C [Compound 56]	–	1 to 10	–	–	< 10	10 to 50	100 to 1000
COc1cc2c(cc1Nc1ncc(Br)c(Nc3ccccc3N(C)S(=O)(=O)C3CC3)n1)-c1cnn(C)c1CCN2C [Compound 3]	< 10	1 to 10	< 10	100 to 1000	–	–	–
COc1cc2c(cc1Nc1ncc(Br)c(Nc3ccccc3P(C)(C)=O)n1)-c1cnn(C)c1CCN2 [Compound 28]	–	1 to 10	–	–	< 10	< 10	100 to 1000
COc1cc2c(cc1Nc1ncc(C)c(Nc3ccc4nccnc4c3NS(C)(=O)=O)n1)-c1cnn(C)c1CCN2C(C)C [Compound 104]	< 10	1 to 10	< 10	100 to 1000	–	–	–
COc1cc2c(cc1Nc1ncc(Br)c(Nc3ccccc3P(C)(C)=O)n1)-c1cnn(C)c1CCN2C1CCN(C)CC1F (centres unmarked) [Compound 65]	< 10	1 to 10	10 to 50	100 to 1000	–	–	–
COc1cc2c(cc1Nc1ncc(Br)c(Nc3ccccc3P(C)(C)=O)n1)-c1cnn(C)c1CCN2CC(F)(F)F [Compound 73]	10 to 50	10 to 50	10 to 50	100 to 1000	–	–	–
COc1cc2c(cc1Nc1ncc(Br)c(Nc3ccccc3P(C)(C)=O)n1)-c1scnc1CCN2C [Compound 42]	< 10	1 to 10	< 10	100 to 1000	–	–	–
COc1cc2c(cc1Nc1ncc(Br)c(Nc3ccccc3P(C)(C)=O)n1)-c1cnc(C)n1CCN2C [Compound 55]	10 to 50	10 to 50	100 to 1000	100 to 1000	–	–	–
COc1cc2c(cc1Nc1ncc(C)c(Nc3ccccc3P(C)(C)=O)n1)-c1cnn(C)c1CCN2C [Compound 7]	< 10	1 to 10	< 10	100 to 1000	–	–	–
COc1cc2c(cc1Nc1ncc(Br)c(Nc3ccccc3P(C)(C)=O)n1)-c1cnn(C)c1C(F)(F)CN2 [Compound 92]	< 10	1 to 10	10 to 50	100 to 1000	–	–	–
COc1cc2c(cc1Nc1ncc(Br)c(Nc3ccccc3NS(C)(=O)=O)n1)-c1cnn(C)c1CCN2C(C)C [Compound 54]	< 10	1 to 10	10 to 50	100 to 1000	–	–	–
